From patent US20100273189A1, “NON SEPARATION ASSAYS WITH SELECTIVE SIGNAL INHIBITORS” (BECKMAN COULTER, INC., priority 2009, published 2010)
Where “and” joins values, the source holds several entries; their conditions need not be identical. Equal values may be shown once.

Key:
biotinylated HRP = target: T1, biotinylated HRP (Armoracia rusticana, UniProt P00433); experiment: Model system for selection of SSIA (M280 btn-BSA-AK1-streptavidin particles + Btn-HRP:HRP); type: biochemical
T1 construct: purchased Roche Diagnostics, Indianapolis, Ind., USA
T1 sequence (P00433 31-338 limits assumed): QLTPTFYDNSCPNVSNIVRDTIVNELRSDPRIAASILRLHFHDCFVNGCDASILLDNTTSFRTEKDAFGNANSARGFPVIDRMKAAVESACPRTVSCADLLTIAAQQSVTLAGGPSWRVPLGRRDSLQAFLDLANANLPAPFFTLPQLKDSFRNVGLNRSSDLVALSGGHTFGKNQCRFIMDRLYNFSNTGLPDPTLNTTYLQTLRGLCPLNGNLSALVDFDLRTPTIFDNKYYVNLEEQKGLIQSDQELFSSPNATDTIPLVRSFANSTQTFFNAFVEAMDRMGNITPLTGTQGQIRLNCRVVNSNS

HRP = target: T2, HRP (Armoracia rusticana, UniProt P00433); experiment: HRP model system on silica particles, with and without ascorbic acid; type: biochemical; settings: 150 μM Ascorbate; for RLU: replicates
T2 construct: purchased Roche Diagnostics, Indianapolis, Ind., USA
T2 sequence (P00433 31-338 limits assumed): T1 sequence (P00433 31-338 limits assumed)
Method: In order to further investigate the effect of specific solid phase particles on the assays described herein, a comparison of a variety of particle types was conducted, including silica, polymethylmethacrylate (PMMA). Carboxyl modified PMMA particles (PolyAn GmbH, Berlin) were labeled with AK and biotin as described in Example 3, followed by coating with streptavidin. Silica particles were reacted with 3-aminopropylsiloxane in 1 mM acetic acid to provide an amine reactive group. The amine functional groups were reacted with AK-3 and biotin-LC-sulfoNHS, followed by coating with streptavidin.
Signal generation with Silica and PMMA particles. Assays using the HRP model system, as generally described in Example 1, were conducted on silica particles and PMMA particles, with and without ascorbic acid in the reaction mixture. The assays were run on a modified DxI instrument as described above. The assay conditions consisted of combining 45 μL BUFFER II (with or without ascorbic acid), 25 μL of particle suspension, and 15 μL of sample and incubating for 30 min. Then 100 μL of trigger solution A was added to the reaction vessel and the light intensity was recorded.

With `O=C1O[C@H]([C@@H](O)CO)C(O)=C1O` [Ascorbic Acid, Ascorbic acid] the S/S0 (biotinylated HRP; Btn-HRP 0 ng/mL vs 0, SSIA 100 μM) was 1, the B-HRP0 light intensity (biotinylated HRP; Btn-HRP 0 ng/mL, total HRP 500 ng/mL, SSIA final 100 μM) was 151 and 97 and the S1/S0 (biotinylated HRP; Btn-HRP 1 ng/mL vs 0, SSIA 100 μM) was 6.6 and 7.8. The B-HRP1 light intensity (biotinylated HRP; Btn-HRP 1 ng/mL, total HRP 500 ng/mL, SSIA final 100 μM) was 995 and 757, the S2/S0 (biotinylated HRP; Btn-HRP 10 ng/mL vs 0, SSIA 100 μM) was 216.2 and 171.6 and the B-HRP10 light intensity (biotinylated HRP; Btn-HRP 10 ng/mL, total HRP 500 ng/mL, SSIA final 100 μM) was 32,568 and 16,641. For the same molecule, the S3/S0 (biotinylated HRP; Btn-HRP 100 ng/mL vs 0, SSIA 100 μM) was 30222.2 and 38064.9, the B-HRP100 light intensity (biotinylated HRP; Btn-HRP 100 ng/mL, total HRP 500 ng/mL, SSIA final 100 μM) was 4,553,473 and 3,692,291 and the S4/S0 (biotinylated HRP; Btn-HRP 250 ng/mL vs 0, SSIA 100 μM) was 59176.1 and 62228.3. The B-HRP250 light intensity (biotinylated HRP; Btn-HRP 250 ng/mL, total HRP 500 ng/mL, SSIA final 100 μM) was 8,915,869 and 6,036,145, the “effect in the model system / utility as SSIA” value (biotinylated HRP; SSIA 100 μM, conclusion in words) was “demonstrating utility as SSIA” and the “Mean RLU” value (HRP; HRP 0 ng/ml) was 263 RLU. The S/S0 (HRP; HRP 0 ng/ml) was 1.0, the RLU (HRP; HRP 0 ng/ml) was 256 RLU and 260 RLU and 272 RLU and the “Mean RLU” value (HRP; HRP 1 ng/ml) was 6,988 RLU. The S/S0 (HRP; HRP 1 ng/ml) was 26.6, the RLU (HRP; HRP 1 ng/ml) was 6,712 RLU and 6,844 RLU and 7,408 RLU and the “Mean RLU” value (HRP; HRP 10 ng/ml) was 309,873 RLU. For the same molecule, the S/S0 (HRP; HRP 10 ng/ml) was 1178.2, the RLU (HRP; HRP 10 ng/ml) was 310,600 RLU and 278,320 RLU and 340,700 RLU and the “Mean RLU” value (HRP; HRP 100 ng/ml) was 2,426,677 RLU. For the same molecule, the S/S0 (HRP; HRP 100 ng/ml) was 9226.9, the RLU (HRP; HRP 100 ng/ml) was 2,306,036 RLU and 2,477,760 RLU and 2,496,236 RLU and the “Mean RLU” value (HRP; HRP 250 ng/ml) was 2,533,168 RLU. The S/S0 (HRP; HRP 250 ng/ml) was 9631.8 and the RLU (HRP; HRP 250 ng/ml) was 2,535,712 RLU and 2,523,068 RLU and 2,540,724 RLU.
